# Entries after “also recorded” stand apart in the source; their conditions may differ.
# Key:
# Assay type in all cases: in vivo
# [1] = target: BTK (Homo sapiens, UniProt Q06187); assay: Intracellular total BTK protein in peripheral blood B lymphocytes of healthy volunteers (flow cytometry)
# Protocol: The percentage of pre-study BTK protein level was determined in cryopreserved B cells by flow cytometry analysis of Mean Fluorescence Intensity.
# [2] = Plasma pharmacokinetics in CLL patients; conditions: human, oral administration
# Excerpt: In this indication, the rapid resynthesis of BTK in the tumor cells in the CLL cell compartment is observed as a steeper rate of decline in the percentage of BTK sites occupied by Formula (II), compared with what has been observed in normal peripheral blood cells of healthy volunteers (compare linear slope estimates of FIG. 25 with FIG. 34).
# [3] = tested on: systemic lupus erythematosus (SLE) in MRL/MpJFASlpr mice; assay: MRL/MpJFASlpr mouse model of systemic lupus erythematosus; conditions: for Histopathology Glomerulus Diameter / Histopathology Summed Score / Kidney (paired) Weight (g) / Change in Body Weight (g) wk 1-12 / Histopathology Interstitial Inflammation: mean (SE); for absolute kidney weights, reduction vs Vehicle Disease Controls / absolute mesenteric lymph node weights, reduction vs Vehicle Disease Controls: term animals
# Protocol: A study designed to determine the effects of candidate anti-inflammatory agent Formula (II) in oral (PO), daily (QD) administration in the treatment of systemic lupus erythematosus (SLE) in MRL/MpJFASlpr mice. Formula (II) was preformulated in vehicle (0.4% HPMC, 0.1% Tween 80, with simethicone for antifoaming). The female MRL/MpJFASlpr mice were dosed with vehicle or Formula (II) (1, 5, or 25 mg/kg) daily (QD) by the oral (PO) route dosing, or they were dosed QD by the intraperitoneal (IP) route with the reference compound cyclophosphamide (15 mg/kg). Prior to dosing, the candidate anti-inflammatory agent was reconstituted either by vortexing or stirring. […]
# Female MRL/MpJFASlpr mice (n=50) that were 8-9 weeks old and weighed approximately 28-41 grams (mean 34 g) at enrollment (mouse age approx. 12 weeks) were obtained from The Jackson Laboratory, Bar Harbor, Me. (stock number 000485). These mice were housed 3-5/cage in shoe-box polycarbonate cages with wire tops, wood chip bedding, and suspended food and water bottles. No concurrent medications were given.
# When they were 12 weeks old (study day 0), the female MRL/MpJFASlpr mice (n=10/group) were randomized by body weight into 5 groups as shown above. Treatment was initiated after randomization and continued for […] (mouse age 12 weeks to 23 weeks).
# Starting on study week one, and then every week thereafter urine from each animal was tested for proteinuria using the Clinitech Multistick test strip (Bayer). The animals were also observed daily for significant clinical signs, moribundity and mortality. […] Efficacy evaluation was based on animal body weights, proteinuria analysis, lymphadenopathy scores, skin lesion scores, organ weights, anti-dsDNA titers, clinical chemistry parameters, and histopathologic evaluation of the kidneys.
# Any animals showing signs of morbundity were terminated immediately. At necropsy (3 h post-dose, mouse age 23 weeks), all remaining animals were anesthetized with Isoflurane and bled via cardiac puncture for serum and plasma (Li Heparin). The animals were bled to exsanguinate then euthanized by cervical dislocation. Spleens, kidneys (paired), and lymph nodes were collected and weighed. Kidneys were collected into 10% neutral buffered formalin (NBF). Spleens were placed in RPMI 1% FBS media for splenocyte isolation. Serum samples for potential clinical chemistry analysis were stored frozen at −80° C. until shipment to Antech Diagnostics. Plasma samples were stored frozen at −80° C. for mouse antidsDNA IgG analysis by ELISA.
# Blood samples were drawn via cardiac puncture from Isoflurane anesthetized animals into serum separator microtainer tubes for clinical chemistries. Samples were shipped to Antech Diagnostics for analysis.
# [4] = 1 mg/kg PO QD, term animals only
# [5] = 5 mg/kg PO QD, term animals only
# [6] = 25 mg/kg PO QD, term animals only
# BTK, sequence (Q06187 whole entry): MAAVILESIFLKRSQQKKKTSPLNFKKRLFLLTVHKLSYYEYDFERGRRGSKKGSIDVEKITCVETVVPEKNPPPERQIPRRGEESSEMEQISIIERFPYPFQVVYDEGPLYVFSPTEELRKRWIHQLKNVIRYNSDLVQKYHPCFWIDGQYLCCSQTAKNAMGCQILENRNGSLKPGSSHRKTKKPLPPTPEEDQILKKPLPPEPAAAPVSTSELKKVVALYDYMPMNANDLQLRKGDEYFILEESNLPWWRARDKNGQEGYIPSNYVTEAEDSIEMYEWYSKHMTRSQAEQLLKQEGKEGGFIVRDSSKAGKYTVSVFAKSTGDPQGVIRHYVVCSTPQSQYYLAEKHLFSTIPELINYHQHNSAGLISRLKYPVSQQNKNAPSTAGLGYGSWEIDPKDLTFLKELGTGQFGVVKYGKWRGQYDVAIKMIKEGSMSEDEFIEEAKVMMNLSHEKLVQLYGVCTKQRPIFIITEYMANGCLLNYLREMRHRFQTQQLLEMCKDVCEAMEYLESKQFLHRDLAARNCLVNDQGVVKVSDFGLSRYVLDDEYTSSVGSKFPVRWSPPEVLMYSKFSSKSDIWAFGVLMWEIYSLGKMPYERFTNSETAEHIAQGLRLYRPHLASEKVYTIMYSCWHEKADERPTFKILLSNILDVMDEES
smiles,measurement,setting,value
"CC#CC(=O)N1CCC[C@H]1c1nc(-c2ccc(C(=O)Nc3ccccn3)cc2)c2c(N)nccn12 [Formula (II), (S)-4-(8-amino-3-(1-(but-2-ynoyl)pyrrolidin-2-yl)imidazo[1,5-a]pyrazin-1-yl)-N-(pyridin-2-yl)benzamide]",intracellular total BTK protein level in B lymphocytes,"[1]; 15 mg QD x 7 days, after 48 hours (between Day 2 and Day 3)",Decreased BTK levels; also recorded: decrease
same,intracellular total BTK protein level in B lymphocytes,"[1]; 15 mg QD, after the initial dose",increased
same,Tmax,[2],~1 h
same,Percent Survival,[3]; 1 mg/kg PO QD,100%
same,Histopathology Glomerulus Diameter,"[3]; 1 mg/kg PO QD, All Animals",*87.78 (3.82)
same,Histopathology Summed Score,"[3]; 1 mg/kg PO QD, All Animals",7.70 (1.07)
same,Kidney (paired) Weight (g),"[3]; 1 mg/kg PO QD, All Animals",0.576 (0.03) g
same,Change in Body Weight (g) wk 1-12,"[3]; 1 mg/kg PO QD, Term Animals",8.10 (0.66) g
same,Histopathology Glomerulus Diameter,"[3]; 1 mg/kg PO QD, Term Animals",87.78 (3.82)
same,Histopathology Summed Score,"[3]; 1 mg/kg PO QD, Term Animals",7.70 (1.07)
same,Kidney (paired) Weight (g),"[3]; 1 mg/kg PO QD, Term Animals",0.576 (0.03) g
same,"glomerulus diameter, reduction vs Vehicle Disease Controls","[3]; 1 mg/kg PO QD, all animals",43%
same,"percent of glomeruli with crescents, reduction","[3]; 1 mg/kg PO QD, all animals",97%
same,serum clinical chemistries vs Vehicle Disease Controls,"[3]; 1 mg/kg PO QD, all animals","significantly increased albumin (ALB), glucose (GLU), and sodium/potassium ratio (Na/K) and significantly reduced blood urea nitrogen (BUN), BUN/creatinine, phosphorus (P), potassium (K), cholesterol (CHOL), and amylase (AMY)"
same,"percent of glomeruli with crescents, reduction",[3]; [4],90%
same,serum clinical chemistries vs Vehicle Disease Controls,[3]; [4],significantly reduced BUN and BUN/creatinine
same,Percent Survival,[3]; 5 mg/kg PO QD,90%
same,mice that died or were sacrificed moribund prior to study termination,[3]; 5 mg/kg PO QD,1 of 10
same,Histopathology Glomerulus Diameter,"[3]; 5 mg/kg PO QD, All Animals",*80.53 (5.64)
same,Histopathology Interstitial Inflammation,"[3]; 5 mg/kg PO QD, All Animals",1.98 (0.29)
same,Histopathology Summed Score,"[3]; 5 mg/kg PO QD, All Animals",*5.60 (0.98)
same,Kidney (paired) Weight (g),"[3]; 5 mg/kg PO QD, All Animals",0.544 (0.02) g
same,Change in Body Weight (g) wk 1-12,"[3]; 5 mg/kg PO QD, Term Animals",7.01 (0.67) g
same,Histopathology Glomerulus Diameter,"[3]; 5 mg/kg PO QD, Term Animals",*80.17 (6.29)
same,Histopathology Interstitial Inflammation,"[3]; 5 mg/kg PO QD, Term Animals",1.97 (0.33)
same,Histopathology Summed Score,"[3]; 5 mg/kg PO QD, Term Animals",*5.50 (1.08)
same,Kidney (paired) Weight (g),"[3]; 5 mg/kg PO QD, Term Animals",*0.531 (0.02) g
same,"glomerulus diameter, reduction","[3]; 5 mg/kg PO QD, all animals",60%
same,"glomerulus score, reduction","[3]; 5 mg/kg PO QD, all animals",58%
same,"percent of glomeruli with crescents, reduction","[3]; 5 mg/kg PO QD, all animals",99%
same,"protein cast score, reduction","[3]; 5 mg/kg PO QD, all animals",92%
same,serum clinical chemistries vs Vehicle Disease Controls,"[3]; 5 mg/kg PO QD, all animals","significantly increased ALB, GLU, calcium (CA), and Na/K and significantly reduced BUN, BUN/creatinine, K, CHOL, and AMY"
same,"summed histopathology scores, reduction","[3]; 5 mg/kg PO QD, all animals",63%
same,"vasculitis, reduction","[3]; 5 mg/kg PO QD, all animals",52%
same,"absolute kidney weights, reduction vs Vehicle Disease Controls",[3]; 5 mg/kg PO QD,16%
same,"absolute mesenteric lymph node weights, reduction vs Vehicle Disease Controls",[3]; 5 mg/kg PO QD,52%
same,"glomerulus diameter, reduction",[3]; [5],46%
same,"percent of glomeruli with crescents, reduction",[3]; [5],98%
same,"protein cast score, reduction",[3]; [5],90%
same,serum clinical chemistries vs Vehicle Disease Controls,[3]; [5],"significantly increased ALB, albumin/globulin ratio (A/G), GLU and Na/K and significantly reduced BUN, BUN/creatinine, and K"
same,"summed histopathology scores, reduction",[3]; [5],54%
same,Percent Survival,[3]; 25 mg/kg PO QD,100%
same,Histopathology Glomerulus Diameter,"[3]; 25 mg/kg PO QD, All Animals",*74.78 (1.62)
same,Histopathology Interstitial Inflammation,"[3]; 25 mg/kg PO QD, All Animals",*1.53 (0.15)
same,Histopathology Summed Score,"[3]; 25 mg/kg PO QD, All Animals",*3.88 (0.34)
same,Kidney (paired) Weight (g),"[3]; 25 mg/kg PO QD, All Animals",0.511 (0.01) g
same,Change in Body Weight (g) wk 1-12,"[3]; 25 mg/kg PO QD, Term Animals",6.90 (0.56) g
same,Histopathology Glomerulus Diameter,"[3]; 25 mg/kg PO QD, Term Animals",*74.78 (1.62)
same,Histopathology Interstitial Inflammation,"[3]; 25 mg/kg PO QD, Term Animals",*1.53 (0.15)
same,Histopathology Summed Score,"[3]; 25 mg/kg PO QD, Term Animals",*3.88 (0.34)
same,Kidney (paired) Weight (g),"[3]; 25 mg/kg PO QD, Term Animals",*0.511 (0.01) g
same,"glomerulus crescent score, reduction","[3]; 25 mg/kg PO QD, all animals",100%
same,"glomerulus diameter, reduction","[3]; 25 mg/kg PO QD, all animals",73%
same,"glomerulus score, reduction","[3]; 25 mg/kg PO QD, all animals",76%
same,"interstitial inflammation, reduction","[3]; 25 mg/kg PO QD, all animals",59%
same,"percent of glomeruli with crescents, reduction","[3]; 25 mg/kg PO QD, all animals",100%
same,"protein cast score, reduction","[3]; 25 mg/kg PO QD, all animals",98%
same,serum clinical chemistries vs Vehicle Disease Controls,"[3]; 25 mg/kg PO QD, all animals","significantly increased ALB, GLU, calcium (CA), and Na/K and significantly reduced BUN, BUN/creatinine, K, CHOL, and AMY"
same,"summed histopathology scores, reduction","[3]; 25 mg/kg PO QD, all animals",75%
same,"vasculitis, reduction","[3]; 25 mg/kg PO QD, all animals",52%
same,urine protein scores vs Vehicle Disease Controls,"[3]; 25 mg/kg PO QD, all animals, mouse age 14-15 and 21-22",significantly reduced
same,"absolute kidney weights, reduction vs Vehicle Disease Controls",[3]; 25 mg/kg PO QD,19%
same,"absolute mesenteric lymph node weights, reduction vs Vehicle Disease Controls",[3]; 25 mg/kg PO QD,49%
same,"glomerulus crescent score, reduction",[3]; [6],100%
same,"glomerulus diameters, reduction",[3]; [6],63%
same,"glomerulus score, reduction",[3]; [6],72%
same,"interstitial inflammation, reduction",[3]; [6],51%
same,"percent of glomeruli with crescents, reduction",[3]; [6],100%
same,"protein cast score, reduction",[3]; [6],97%
same,serum clinical chemistries vs Vehicle Disease Controls,[3]; [6],significantly increased ALB and CA and significantly reduced BUN and BUN/creatinine
same,"summed histopathology scores, reduction",[3]; [6],68%
same,"vasculitis, reduction",[3]; [6],47%
same,urine protein scores vs Vehicle Disease Controls,"[3]; 25 mg/kg PO QD, term animals only, mouse age 22",significantly reduced
same,anti-dsDNA IgG levels vs Vehicle Disease Controls,"[3]; 1, 5 or 25 mg/kg PO QD",not significantly affected
same,body weight change vs Vehicle Disease Controls,"[3]; 1, 5 or 25 mg/kg PO QD",did not differ significantly
same,cumulative lymph node weights vs Vehicle Disease Controls,"[3]; 1, 5 or 25 mg/kg PO QD",did not differ significantly
same,lymphadenopathy scores vs Vehicle Disease Controls,"[3]; 1, 5 or 25 mg/kg PO QD",not significantly affected
same,skin lesion scores vs Vehicle Disease Controls,"[3]; 1, 5 or 25 mg/kg PO QD",not significantly affected
same,spleen weights vs Vehicle Disease Controls,"[3]; 1, 5 or 25 mg/kg PO QD",did not differ significantly

# Reference: patent US20170143712A1, “Methods of Treating Cancers, Immune and Autoimmune Diseases, and Inflammatory Diseases Based on BTK Occupancy and BTK Resynthesis Rate” (Acerta Pharma B.V., priority 2014, published 2017)
